Melting point data for 50 compounds are collected here from patent US6784167B2, “17-beta-hydroxysteroid dehydrogenase-II inhibitors” (Bayer Pharmaceuticals Corporation, priority 2000, dated 2004).

Structures are written as SMILES.

As a reminder, the melting point is the temperature, or range, at which the solid turns liquid.

For `CN1C(=O)C[C@H](c2ccccc2)[C@@H]1[C@H](O)CCc1ccc(F)cc1` (relative stereo) [Example 16, (±)-5-[(1R*)-3-(4-fluorophenyl)-1-hydroxypropyl](4R*,5R*)-1-methyl-4-phenylpyrrolidin-2-one], the melting point was in the range of 122 to 124 °C.

On to `CN1C(=O)C[C@H](c2ccccc2)[C@@H]1[C@H](O)c1ccc(-c2ccc(F)c(Cl)c2)s1` (relative stereo) [Example 5, (±)-(4R*,5R*)-5-{(1S*)[5-(3-chloro-4-fluorophenyl)(2-thienyl)]hydroxymethyl}-1-methyl-4-phenylpyrrolidin-2-one], for which the melting point was found to be 194 °C.

`COc1cccc(C(O)C2C(c3ccccc3)CC(=O)N2C)c1` (centres unmarked) [Example 97] showed a melting point of 160 to 161 °C.

Regarding `CN1C(=O)CC(c2ccccc2)C1C(O)c1ccc(-c2cccc(C(=O)O)c2)s1` (centres unmarked) [Example 33], the melting point was found to be 231 °C.

On to `CN1C(=O)CC(c2ccccc2)C1C(O)c1ccc(-c2ccccc2)cc1` (centres unmarked) [Example 93], for which the melting point was 202 °C.

Compound `CN1C(=O)CC(c2ccccc2)C1C(O)c1cc(-c2ccccc2)cs1` (centres unmarked) [Example 42] gave a melting point of 165 °C.

`Cc1ccc([C@@H](O)[C@H]2[C@@H](c3ccccc3)CC(=O)N2C)s1` (relative stereo) [Example 6, (±)-(4R*,5R*)-5-[(1S*)-hydroxy(5-methyl(2-thienyl))methyl]-1-methyl-4-phenylpyrrolidin-2-one] displayed a melting point of 185 to 188 °C.

On to `CN(C)c1ccc(C(O)C2C(c3ccccc3)CC(=O)N2C)cc1` (centres unmarked) [Example 101], for which the melting point fell in the range of 182 to 185 °C.

`Cc1ccc(-c2ccc(C(O)C3C(c4ccccc4)CC(=O)N3C)s2)nc1` (centres unmarked) [Example 27] came in with a melting point of 173 °C.

Compound `CC(=O)Nc1cccc(-c2ccc(C(O)C3C(c4ccccc4)CC(=O)N3C)s2)c1` (centres unmarked) [Example 48] gave a melting point of 97 °C.

In turn, `CN1C(=O)CC(c2ccccc2)C1C(O)c1ccc2c(c1)OCO2` (centres unmarked) [Example 108] had a melting point of 211 °C.

As to `CN1C(=O)CC(c2ccccc2)C1C(O)c1ccc(-c2cccc(F)c2)s1` (centres unmarked) [Example 46], the melting point amounted to 180 °C.

Take `CN1C(=O)CC(c2ccccc2)C1C(O)c1ccc(C(=O)c2ccc(F)cc2)s1` (centres unmarked) [Example 65]: the melting point is 229 to 232 °C (dec.).

`COc1cccc(-c2cccc(C(O)C3C(c4ccccc4)CC(=O)N3C)c2)c1` (centres unmarked) [Example 107]: the melting point came out at 183 °C.

In the case of `COc1cc(-c2ccc(C(O)C3C(c4ccccc4)CC(=O)N3C)s2)cc(OC)c1OC` (centres unmarked) [Example 49], the melting point is 190 °C (dec.).

For `CN1C(=O)CC(c2ccc(N)cc2)C1C(O)c1ccc(-c2ccc(F)cc2)s1` (centres unmarked) [Example 86], the melting point was determined as 209 °C.

Turning to `CN1C(=O)CC(c2ccccc2)C1C(O)c1ccc(Cc2ccc(F)cc2)s1` (centres unmarked) [Example 59], the melting point lay in the range of 155 to 157 °C.

`CSc1nccc(-c2ccc(C(O)C3C(c4ccccc4)CC(=O)N3C)s2)n1` (centres unmarked) [Example 77] showed a melting point of 195 °C.

The compound `CN1C(=O)CC(c2ccccc2)C1C(O)c1ccc(-c2ccc3ccccc3n2)s1` (centres unmarked) [Example 40] showed a melting point of 225 to 228 °C.

In turn, `CN1C(=O)C[C@H](c2ccccc2)[C@@H]1[C@H](O)c1ccc(C(=O)Nc2ccccc2)s1` (relative stereo) [Example 4, (±)-5-[(1S*)(5-(N-phenylcarbamoyl)(2-thienyl))hydroxymethyl](4R*,5R*)-1-methyl-4-phenylpyrrolidin-2-one] registered a melting point of 223 to 227 °C.

In the case of `CN1C(=O)CC(c2ccccc2)C1C(O)c1ccc(-c2cccc3ccccc23)s1` (centres unmarked) [Example 45], the melting point was 160 °C.

Turning to `CC(=O)Nc1cccc(-c2cccc(C(O)C3C(c4ccccc4)CC(=O)N3C)c2)c1` (centres unmarked) [Example 102], the melting point came to 150 °C.

With `CN1C(=O)CC(c2ccccc2)C1C(O)c1cccc(C(F)(F)F)c1` (centres unmarked) [Example 96], the melting point was in the range of 155 to 158 °C.

In the case of `Cc1cccc([C@@H](O)[C@H]2[C@@H](c3ccccc3)CC(=O)N2C)c1` (relative stereo) [Example 7, (±)-(4R*,5R*)-5-[(1R*)hydroxy(3-methylphenyl)methyl]-1-methyl-4-phenylpyrrolidin-2-one], the melting point is 163 to 165 °C.

Compound `CN1C(=O)C[C@@H]2c3ccccc3[C@@](O)(c3ccc(-c4ccccc4)s3)[C@@H]21` (relative stereo) [Example 24, (±)-(8S*,3aR*,8aR*)-8-hydroxy-1-methyl-8-(5-phenyl(2-thienyl))indano[2,1-b]pyrrolidin-2-one] showed a melting point of 178 to 180 °C.

As to `CN1C(=O)CC(c2ccccc2)C1C(O)c1cc2ccccc2o1` (centres unmarked) [Example 112], the melting point was 120 to 122 °C.

The compound `CN1C(=O)CC(c2ccccc2)C1C(O)C#Cc1cccc(O)c1` (centres unmarked) [Example 132] came in with a melting point of 210 to 211 °C.

For `CN1C(=O)CC(c2ccccc2)C1C(O)c1ccc(Sc2ccc(Cl)cc2)s1` (centres unmarked) [Example 60], the melting point is 174 to 176 °C.

Regarding `COc1ccc2oc(C(O)C3C(c4ccccc4)CC(=O)N3C)cc2c1` (centres unmarked) [Example 113], the melting point fell in the range of 180 to 182 °C.

On to `CN1C(=O)CC(c2ccccc2)C1C(O)c1cc2ccccc2s1` (centres unmarked) [Example 41], for which the melting point is 195 °C (dec.).

`CN1C(=O)CC(c2ccccc2)C1C(O)c1cccc(-c2cccc(N)c2)c1` (centres unmarked) [Example 105] gave a melting point of 130 °C.

The compound `CN1C(=O)CC(c2ccccc2)C1C(O)c1ccc(-c2c(F)cc(F)cc2F)s1` (centres unmarked) [Example 75] showed a melting point of 95 °C.

The compound `CN1C(=O)CC(c2ccccc2)C1C(O)c1ccc(-c2ccc(F)cc2)cc1` (centres unmarked) [Example 111] showed a melting point of 117 °C.

`COc1ccc(C(O)C2C(c3ccccc3)CC(=O)N2C)cc1` (centres unmarked) [Example 100] came in with a melting point of 154 to 157 °C.

Regarding `CO[C@H](c1cccc(-c2ccccc2)c1)[C@H]1[C@@H](c2ccccc2)CC(=O)N1C` [Example 143], the melting point came to 136 °C.

As to `CN1C(=O)C[C@H](c2ccccc2)[C@@H]1[C@H](O)c1ccc(-c2ccc(F)cc2)s1` (relative stereo) [Example 3a, (±)-(4R*,5R*)-5-{(1S*) [5-(4-fluorophenyl)(2-thienyl)]hydroxymethyl}-1-methyl-4-phenylpyrrolidin-2-one], the melting point was 110 °C (dec.).

`CN1C(=O)CC(c2ccccc2)C1C(O)c1cccc(-c2cccc(F)c2)c1` (centres unmarked) [Example 103]: the melting point is 187 °C.

`CN1C(=O)C[C@H](c2ccccc2F)[C@@H]1[C@H](O)c1ccc(-c2cccnc2)s1.Cl` [Example 152] yielded a melting point of 180 to 182 °C.

The compound `COc1ccc(C2CC(=O)N(C)C2C(O)c2ccc(-c3ccccc3)s2)cc1` (centres unmarked) [Example 82] came in with a melting point of 215 °C.

`CN1C(=O)C[C@H](c2ccccc2)[C@@H]1[C@H](O)/C=C/c1ccc(F)cc1` (relative stereo) [Example 15, (±)-(4R*,5R*)-5-[(2E)(1R*)-3-(4-fluorophenyl)-1-hydroxyprop-2-enyl]-1-methyl-4-phenylpyrrolidin-2-one] showed a melting point of 189 to 191 °C.

Turning to `CN1C(=O)CC(c2ccccc2)C1C(O)c1cccc(-c2ccc(O)cc2)c1` (centres unmarked) [Example 110], the melting point amounted to 230 °C.

The compound `Cc1ccc(C(O)C2C(c3ccccc3)CC(=O)N2C)cc1` (centres unmarked) [Example 95] returned a melting point of 129 to 131 °C.

On to `COc1ccc(-c2ccc(C(O)C3C(c4ccccc4)CC(=O)N3C)s2)cc1` (centres unmarked) [Example 39], for which the melting point fell in the range of 168 to 170 °C.

Consider `CN1C(=O)CC(c2ccccc2)C1C(O)c1ccc(C=Cc2ccc(F)cc2)s1` (centres unmarked) [Example 56], for which the melting point was 194 to 195 °C (dec.).

For `CN1C(=O)CC(c2ccccc2)C1C(O)c1ccc(-c2cccc(N)c2)o1` (centres unmarked) [Example 119], the melting point came out at 98 °C.

`CN1C(=O)C[C@H](c2ccccc2)[C@@H]1[C@H](O)c1ccc(-c2cccnc2)s1` (relative stereo) [Example 3b, (4R,5R)-5-{(1S)-hydroxy[5-(3-pyridinyl)-2-thienyl]methyl}-1-methyl-4-phenyl-2-pyrrolidinone] yielded a melting point of 232 °C.

As to `CN1C(=O)C[C@H](c2ccccc2)[C@@H]1[C@H](F)c1ccc(-c2ccc(F)cc2)s1` [Example 144], the melting point is 121 to 123 °C.

On to `CN1C(=O)CC(c2ccccc2)C1C(O)c1ccc(C(=O)c2ccccc2)s1` (centres unmarked) [Example 63], for which the melting point was 202 °C (dec.).

Take `CC(=O)O[C@H](c1ccc(-c2ccc(F)cc2)s1)[C@H]1[C@@H](c2ccccc2)CC(=O)N1C` (relative stereo) [Example 13, (±)-(4R*,5R*)5-{(1S*)[5-(4-fluorophenyl)(2-thienyl)]acetyloxymethyl}-1-methyl4-phenylpyrrolidin-2-one]: the melting point is 75 °C.

For the compound `CN1C(=O)CC(c2ccccc2)C1C(O)c1ccc(-c2ccc(F)cc2)o1` (centres unmarked) [Example 114], the melting point stood at 168 °C.
